Among the data in patent US20120196875A1, “PHARMACEUTICAL COMPOSITIONS FOR TREATMENT OF RESPIRATORY AND INFLAMMATORY DISEASES” (BOEHRINGER INGELHEIM INTERNATIONAL GMBH, priority 2010, published 2012) are bronchoprotection and overflow values, retold here.

In the assay the test system is Dunkin-Harley guinea pigs (OVA broncho-constriction). Nature of the assay: OVA-induced bronchospasm in sensitized, anaesthetized guinea pigs (modified Konzett-Rössler method, pyrilamin pre-treatment). The class given is in vivo, guinea pig. On the procedure:
Male and female Dunkin-Harley guinea pigs were obtained from the Experimental Animal Breeding Centre of Harlan Winkelmann (Germany). After fasting overnight, but with free access to drinking water, animals with body weight of 400-500 g were used.
Bronchospasm was recorded with a modified version of the method of Konzett-Röβler (described by Walland et al, in “Compensation of muscarinic bronchial effects of talsaclidine by concomitant sympathetic activation in guinea pigs”, European Journal of Pharmacology, Volume 330, Issue 2-3, 9 July 1997, Pages 213-219). The animals were ventilated by means of a piston pump (starling ventilator, Hugo Sachs Elektronik, Germany) at a stroke volume of 1 ml/100 g body weight and at a rate of 60 strokes per min. The tubing which connected the tracheal cannula with the ventilator was provided with a branch leading to the bronchospasm transducer (bronchospasm transducer 7020, Ugo Basile, Italy). The air flow measurement is based on the hot wire anemometer principle. Any air flow will reduce the temperature of the wire, thereby decreasing its resistance in proportion of the flow. As the wire element is one arm of a Weaststone bridge, variations in resistance generate a proportional voltage output which feeds the amplifier/recording system (Notocord-hem, Notocord, France). Blood pressure and heart rate are monitored from a carotid artery in order to check the anesthesia and the variability of the preparation.
Guinea pigs were sensitized on 2 consecutive days with 20 μg ovalbumin (OVA) (Sigma, St. Louis, Mo.) and 20 mg Al(OH)3 in 0.5 mL saline, which were administered subcutaneously. Experiments, which included OVA challenge, were conducted 2 weeks after sensitization. Approximately 1 hour before OVA challenge, the animals were anaesthetized with an intraperitoneal injection of 50 mg/kg pentobarbital. Anesthesia was prolonged by intravenous infusion of pentobarbital (15 mg/kg/h) via the jugular vein. A tracheal cannula was introduced after tracheotomy for artificial ventilation. The internal jugular vein was cannulated for drug injection while the left carotid artery was cannulated for measuring blood pressure and heart rate. The test compounds or combinations of compounds were administered orally 2 hours before the OVA challenge. Pyrilamin (anti-histaminic) is injected intravenously at 2 mg/kg, 6 minutes before OVA challenge in order to record the non histamine-related bronchospasm. The OVA challenge induces mast cell degranulation responsible for the bronchospasm due to the release into the lung of inflammatory mediators such as histamine, leukotrienes, prostaglandins and tromboxanes. The pre-treatment of the guinea pigs with pyrilamin prevents the part of the bronchospasm induced by histamine (around 40 to 50% of the bronchospasm). 30 Minutes after the beginning of air flow and blood pressure measurements, bronchoconstriction is triggered by an OVA challenge given at a fixed dose of 50 μg/kg inhaled.
The control group comprises 12 guinea-pigs, test compounds comprise 2 to 4 guinea-pigs. At the end of the experiment, animals are euthanized by an overdose of pentobarbital (100 mg/kg i.v.).
OVA challenge in control guinea-pigs induces an overflow of 33 (±10) ml which is used as 100% bronchospasm. Bronchoprotection of the drug (i.e. inhibition of OVA broncho-constriction) is expressed as a percentage of inhibition of the increase in overflow induced by OVA in the control animals.

[1] abbreviates: CRTH2 antagonist (1) 0.001 mg/kg p.o. alone.
[2] abbreviates: CRTH2 antagonist (1) 0.003 mg/kg p.o. alone.
Where [3] appears, read: CRTH2 antagonist (1) 0.01 mg/kg p.o. alone.
The mark [4] stands for this setting: CRTH2 antagonist (1) 0.03 mg/kg p.o. alone.
[5] abbreviates: CRTH2 antagonist (1) 0.1 mg/kg p.o. alone.
Where [6] appears, read: CRTH2 antagonist (1) 0.3 mg/kg p.o. alone.
Setting [7] is: CRTH2 antagonist (1) 1.0 mg/kg p.o. alone.
The mark [8] stands for this setting: CRTH2 antagonist (1) 3.0 mg/kg p.o. alone.
Where [9] appears, read: CRTH2 antagonist (1) 10.0 mg/kg p.o. alone.

Regarding `CN(C)c1nc(Cc2ccc(NC(=O)c3ccc(C(F)(F)F)cc3)cc2)nc(N(C)C)c1CC(=O)O` [CRTH2 antagonist (1), [4,6-bis(dimethylamino)-2-(4-(4-(trifluoromethyl)benzamido)-benzyl)pyrimidin-5-yl]acetic acid], the bronchoprotection under setting [1] came out at 0%; the bronchoprotection under setting [2] was determined as 0%; the bronchoprotection under setting [3] came out at 0%; the bronchoprotection under setting [4] is 0%; the bronchoprotection under setting [5] is listed as 0%; the bronchoprotection under setting [6] amounted to 24%. Besides, the bronchoprotection by setting is: under setting [7], 42%; under setting [8], 64%; under setting [9], 70%. Besides, the overflow amounted to 38 mL under setting [1]; 35 mL under setting [2]; 40 mL under setting [3]; 33 mL under setting [4]; 41 mL under setting [5]; 25 mL under setting [6]. The overflow is 19 mL under setting [7], 12 mL under setting [8] and 10 mL under setting [9].
Regarding `O=C(Nc1c(Cl)cncc1Cl)c1ccc(OC(F)F)c(OCC2CC2)c1` [Roflumilast, roflumilast, reference compound], the overflow (Roflumilast 0.03 mg/kg p.o. alone, 2 hours before OVA challenge) stood at 28 mL. For the same compound, the bronchoprotection (Roflumilast 0.03 mg/kg p.o. alone, 2 hours before OVA challenge, inhibition of OVA-induced overflow vs control) came out at 15%.
